One assay concerns U2OS cells. The assay is described as follows: Cell viability assay (CellTiter-Blue), anti-proliferative activity. The class given is cell-based, human. The note with it: 72 h treatment. The protocol:
Cell viability assays were carried out by plating U2OS cells (2,000 cells per well) in 96-well plates.

Assay [1] concerns genomic DNA from U2OS cells. The settings on record: compared to equal amounts of DNA collected from CP-treated cells; 3 h treatment. From the text:
Samples were air dried and visualized using a Bio-Rad Molecular Imager ChemiDoc XRS+ system.

Assay [2] has as its system 26-mer hairpin-forming DNA oligonucleotide containing a single 1,2-GG dinucleotide. The settings on record: 37° C., 18 h.
Procedure: The reaction of hp with ACP was performed at 37° C. for 18 h. Unbound ACP and salts were removed using a Sephadex G-25 Medium size exclusion resin (GE Healthcare) on laboratory prepared spin columns (BioRad).
In the next assay the test system is DNA-Pt in U2OS cells. The assay is described as follows: Screen of small molecule modulators of genome targeting using ACP staining as readout. The class given is cell-based, human. The settings on record: U2OS cells co-treated with small molecule and ACP, confocal microscopy. The protocol:
Labeled DNA-Pt were analyzed by confocal microscopy.
[…], ACP, APPOA and CP were prepared in the laboratory as described in the synthesis section of the methods. Suberoylanilide hydroxamic acid (SAHA) was purchased from Sigma and cisplatin was purchased from Tocris.
Data were analyzed with ImagaJ.

The next assay has as its system histone H4. The assay is described as follows: Western blot of histone H4 acetylation. The class given is cell-based, human. The note with it: U2OS cells. The protocol: Cells were washed once with PBS and lysed in lysis buffer (50 mM Tris-HCl, pH 7.5, 150 mM NaCl, 1 mM EDTA, 1% Triton X-100). For Western blot, samples were briefly sonicated followed by boiling in SDS sample buffer and separated by SDS-PAGE gels. Proteins were transferred to nitrocellulose membrane (GE Healthcare) and western blotting was performed following standard protocols. Western blots were detected by chemiluminescence (GE Healthcare Amersham ECL prime) using a Bio-Rad Molecular Imager ChemiDoc XRS+ system. The primary antibodies used for western blotting: H2AX (Millipore; #07-627), γH2AX [pSer139] (Novus Biologicals; NB100-384), histone H4 (Abcam; ab7311), acetyl-histone H4 (Lys16) (Cell Signaling; #8804), acetyl-histone H4 (Millipore; #06-866), PCNA (Santa Cruz Biotech; PC10), RAD18 (Cell Signaling; #21000), PARP (Cell Signaling; #9542), β-tubulin (Abcam; ab6046). Secondary antibodies used were: anti-rabbit IgG, HRP-linked (Cell Signaling; #7074), anti-mouse IgG, HRP-linked (Cell Signaling; #7076).
(In general: Immunoblotting shows a protein as a band on a membrane.)

The record followed here is patent US20180355441A1, “VISUAL DETECTION OF PLATINATED DNA LESIONS FROM A CLICKABLE CISPLATIN PROBE USED AS DIAGNOSTIC TOOL OR TO IDENTIFY SYNERGISTIC TREATMENTS” (CENTRE NATIONAL DE LA RECHERCHE SCIENTIFIQUE, priority 2015, published 2018).

On to “2-aminomethylpyridine(dichloro)platinum(II) azide [ACP]”, for which the “Anti-proliferative activity against U2OS cells” value in the assay with U2OS cells is given as “exhibited anti-proliferative properties”. In addition, the “Fluorescence of labeled genomic DNA (dot blot)” value in assay [1] was “higher level of fluorescence”. Besides, the “Reactivity towards DNA and labeling by alkyne-containing tag in vitro” value in assay [2] is “can chemoselectively cross react with DNA and be labeled by an alkyne-containing tag”.
`Nc1ncn([C@@H]2O[C@H](CO)[C@@H](O)[C@H]2O)c(=O)n1` [Compound 5-Aza, 5-Azacytidine]: the “Effect on ACP staining (DNA-Pt) by visual inspection” value in the assay on DNA-Pt in U2OS cells was “led to the occurrence of foci of DNA-Pt”.
For the compound `O=C(CCCCCCC(=O)Nc1ccccc1)NO` [SAHA, Suberoylanilide hydroxamic acid], the “Effect on ACP staining (DNA-Pt) by visual inspection” value in the assay on DNA-Pt in U2OS cells was “led to the occurrence of foci of DNA-Pt”. Also, the “Histone H4 acetylation” value in the assay with histone H4 is listed as “induced histone hyperacetylation of histone H4”.
In the case of `N.N.[Cl][Pt][Cl]` [cisplatin], in the assay on U2OS cells, the “Anti-proliferative activity against U2OS cells” value is listed as “exhibited anti-proliferative properties”.
